# Test results taken from publication PMC7478165, “Derivatisation of parthenolide to address chemoresistant chronic lymphocytic leukaemia” (MedChemComm, 2019).
# What was measured:
# MEC1 CLL cell line [1] = test: cells; design: alamarBlue (resazurin reduction) viability assay in MEC1 CLL cells; settings: Homo sapiens, MEC1, 24 h; read-out: alamarBlue EC50 (uM) average
# Description: Defective p53-signalling increases genomic instability and drives tumour progression. A high frequency of p53 inactivation is found in relapsed, treatment-resistant, high risk CLL.[30] […] Owing to resource availability a subset of up to ten of these compounds was prioritised for further investigation. Compounds 2d, 2e, 2j, 2aa, 5a, 5d, 5e, 5f, 5ab and 6b were selected on the basis of reasons including ease of synthetic access, diversity across the chemical space probed and novelty. Those prepared under conditions (i)Scheme 1 (2d, 5a and 6b) were available on a scale and in a purity to directly permit follow-up studies, whereas compounds prepared under conditions (ii)Scheme 1 were prepared on a small scale so were resynthesised. These seven compounds (2e, 2j, 2aa, 5d, 5e, 5f and 5ab) were isolated on >30 mg scale in high purity and progressed to more following studies. Biological efforts at Sygnature Discovery (where differing to University of Birmingham) MEC1 cells were obtained from the American Type Culture Collection (Manassas, VA 20110 USA) and were routinely cultured in RPMI 1640 medium (Sigma-Aldrich) supplemented with 1% L-glutamine (Sigma-Aldrich), 1% Penicillin/Streptomycin (Sigma-Aldrich) and 10% FBS (Gibco). The MEC1 proliferation assay was conducted by performing a re-feed of the MEC1 cells 24 h prior to cell seeding. On the day of the assay, cells were seeded into a 384-well assay plate at a density of 12,500 cells/well in 25 μL of complete MEC1 medium. Compound treatment was performed on the day of cell seeding, with compounds prepared as duplicate compound response curves (final DMSO concentration of 0.6%). Post compound treatment, MEC1 assay plates were returned to a 37 °C/5% CO2 incubator for 24 h of incubation. Following compound treatment, cellular viability was determined by measuring reduction of alamarBlue® reagent (Invitrogen). alamarBlue® reagent (2.5 μL) was added to each assay well to give a 1:10 dilution of the neat stock and assay plates were incubated for 3 h at 37 °C/5% CO2. Reduction of alamarBlue® was determined using an Envision Xcite plate reader (Perkin Elmer) with an excitation wavelength of 560 nm set and an emission wavelength of 590 nm set. Cell viability was determined by normalising raw fluorescent data to a cell only high control and Parthenolide treated low control to provide percentage viability readout. Data was plotted and EC50 values extracted and reported EC50s represent an average of at least two independent assays.
# MEC1 CLL cell line [2] = test: alamarBlue assay, in vitro antileukaemic activity against MEC1 CLL cell line; type: cell-based
# Description: Defective p53-signalling increases genomic instability and drives tumour progression. A high frequency of p53 inactivation is found in relapsed, treatment-resistant, high risk CLL.[30] […] Owing to resource availability a subset of up to ten of these compounds was prioritised for further investigation. Compounds 2d, 2e, 2j, 2aa, 5a, 5d, 5e, 5f, 5ab and 6b were selected on the basis of reasons including ease of synthetic access, diversity across the chemical space probed and novelty. Those prepared under conditions (i)Scheme 1 (2d, 5a and 6b) were available on a scale and in a purity to directly permit follow-up studies, whereas compounds prepared under conditions (ii)Scheme 1 were prepared on a small scale so were resynthesised. These seven compounds (2e, 2j, 2aa, 5d, 5e, 5f and 5ab) were isolated on >30 mg scale in high purity and progressed to more following studies.
# Following the identification of 5f as the most promising drug-like derivative of PTL from the aforementioned parallel/high-throughput screening, the anti-leukaemic activity of 5f was tested once more and compared directly with that of PTL (1) and DMAPT (2a), which serve as comparators and positive controls.
# Amine 7 was successfully prepared as follows: 4-Piperidinecarboxylic acid was N-Boc protected to deliver 8 in 92% yield.[43] In order to confidently assign the NMR spectra of compound 8 J-MOD, HSQC and ^1H–^1H COSY were helpful, particularly in establishing that a broad resonance in the proton-decoupled ^13C NMR spectrum, centred on 42.8 ppm, corresponds to the ring-carbons bonded to nitrogen. The carboxylic acid of 8 was converted to the corresponding ethyl-3-keto-propanoate 9 in 24% yield. Conversion of 9 to the N-Boc protected congener 10, was achieved by treatment with acetamidine hydrochloride and potassium carbonate, furnishing 10 in 77% yield. Treatment with trifluoroacetic acid delivered desired compound 7 in 99% yield for the Boc-deprotection step (scale 200 mg, 17% over four linear steps). Thus, evidencing accessibility of amine 7 and with it in hand, it was timely to probe any activity arising from the amine alone. MEC1 sensitivity to 1, 5f and 7 was compared in parallel using the alamarBlue® assay (Fig. 6). […] A pre-peer-reviewed preprint of this article was deposited and may be viewed elsewhere.[44]
Structure (SMILES),EC50 (MEC1 CLL cell line [1]) [µM],further results
CC1=CCCC2(C)OC2C2OC(=O)C(CN(C)C(C)C)C2CC1 (stereo not drawn) [2b],> 30,–
CC1=CCCC2(C)OC2C2OC(=O)C(CN(C)CCO)C2CC1 (stereo not drawn) [2c],5.2,–
CC1=CCCC2(C)OC2C2OC(=O)C(CN(C)Cc3ccc(Cl)cc3)C2CC1 (stereo not drawn) [2h],18.3,–
CCOc1cccc(CN(CCO)CC2C(=O)OC3C2CCC(C)=CCCC2(C)OC32)c1 (stereo not drawn) [2i],19.2,–
CC1=CCCC2(C)OC2C2OC(=O)C(CN(C)Cc3n[nH]c4c3CCCCC4)C2CC1 (stereo not drawn) [2k],19.3,–
CCN(Cc1cc(Cl)ccc1OC)CC1C(=O)OC2C1CCC(C)=CCCC1(C)OC21 (stereo not drawn) [2l],19.8,–
CC1=CCCC2(C)OC2C2OC(=O)C(CN(C)Cc3nnc(-c4ccccc4)o3)C2CC1 (stereo not drawn) [2n],> 30,–
CC1=CCCC2(C)OC2C2OC(=O)C(CN(C)Cc3cccc(C(F)(F)F)c3)C2CC1 (stereo not drawn) [2p],> 30,–
CC1=CCCC2(C)OC2C2OC(=O)C(CN(C)Cc3nc(-c4ccccn4)no3)C2CC1 (stereo not drawn) [2q],> 30,–
CC1=CCCC2(C)OC2C2OC(=O)C(CN(Cc3sccc3C)C3CC3)C2CC1 (stereo not drawn) [2r],> 30,–
CCCc1nc(CN(CC)CC2C(=O)OC3C2CCC(C)=CCCC2(C)OC32)no1 (stereo not drawn) [2s],> 30,–
CC1=CCCC2(C)OC2C2OC(=O)C(CN(Cc3ccco3)Cc3cccs3)C2CC1 (stereo not drawn) [2t],> 30,–
CC1=CCCC2(C)OC2C2OC(=O)C(CN(Cc3ccncc3)Cc3ccc4c(c3)OCO4)C2CC1 (stereo not drawn) [2u],> 30,–
CC1=CCCC2(C)OC2C2OC(=O)C(CN(C)Cc3nc4cc(C)c(C)cc4[nH]3)C2CC1 (stereo not drawn) [2y],> 30,–
CC1=CCCC2(C)OC2C2OC(=O)C(CNCCO)C2CC1 (stereo not drawn) [4a],19,–
CC1=CCCC2(C)OC2C2OC(=O)C(CNCc3ccc(F)cc3C(F)(F)F)C2CC1 (stereo not drawn) [4aa],> 30,–
CC1=CCCC2(C)OC2C2OC(=O)C(CNCc3c(F)cccc3C(F)(F)F)C2CC1 (stereo not drawn) [4ab],> 30,–
CC1=CCCC2(C)OC2C2OC(=O)C(CNCc3ccc(Cl)cc3Cl)C2CC1 (stereo not drawn) [4ac],> 30,–
CC1=CCCC2(C)OC2C2OC(=O)C(CNCc3c(F)cccc3Cl)C2CC1 (stereo not drawn) [4ad],> 30,–
COCCNCC1C(=O)OC2C1CCC(C)=CCCC1(C)OC21 (stereo not drawn) [4b],> 30,–
CC1=CCCC2(C)OC2C2OC(=O)C(CNCc3ccccc3)C2CC1 (stereo not drawn) [4c],20.4,–

Structure (SMILES),EC50 (MEC1 CLL cell line [1]) [µM],further results
C#CCNCC1C(=O)OC2C1CCC(C)=CCCC1(C)OC21 (stereo not drawn) [4d],> 30,–
CC1=CCCC2(C)OC2C2OC(=O)C(CNCC3CCOCC3)C2CC1 (stereo not drawn) [4f],23.3,–
CC1=CCCC2(C)OC2C2OC(=O)C(CNCCOc3cccc(C)c3)C2CC1 (stereo not drawn) [4h],21.9,–
CC1=CCCC2(C)OC2C2OC(=O)C(CNCc3ccc(Cl)cc3F)C2CC1 (stereo not drawn) [4i],> 30,–
COc1ccc(-c2noc(CNCC3C(=O)OC4C3CCC(C)=CCCC3(C)OC43)n2)cc1OC (stereo not drawn) [4k],> 30,–
CC1=CCCC2(C)OC2C2OC(=O)C(CNCc3c(F)cc(F)cc3F)C2CC1 (stereo not drawn) [4l],> 30,–
CC1=CCCC2(C)OC2C2OC(=O)C(CNCc3ccco3)C2CC1 (stereo not drawn) [4m],> 30,–
CC1=CCCC2(C)OC2C2OC(=O)C(CNCc3ccc(N(C)C)cc3)C2CC1 (stereo not drawn) [4n],> 30,–
COc1ccccc1CNCC1C(=O)OC2C1CCC(C)=CCCC1(C)OC21 (stereo not drawn) [4p],> 30,–
CC1=CCCC2(C)OC2C2OC(=O)C(CNCc3ccccc3N(C)C)C2CC1 (stereo not drawn) [4q],> 30,–
CC1=CCCC2(C)OC2C2OC(=O)C(CNCC(C)(C)N3CCOCC3)C2CC1 (stereo not drawn) [4r],> 30,–
CC1=CCCC2(C)OC2C2OC(=O)C(CNCCc3nccs3)C2CC1 (stereo not drawn) [4s],> 30,–
CC1=CCCC2(C)OC2C2OC(=O)C(CNCc3c(Cl)cccc3Cl)C2CC1 (stereo not drawn) [4t],> 30,–
CC1=CCCC2(C)OC2C2OC(=O)C(CNCc3ccccc3C(F)(F)F)C2CC1 (stereo not drawn) [4u],> 30,–
CC1=CCCC2(C)OC2C2OC(=O)C(CNCc3ccc(C(F)(F)F)cc3)C2CC1 (stereo not drawn) [4v],> 30,–
CC1=CCCC2(C)OC2C2OC(=O)C(CNCc3ccc(OC(F)(F)F)cc3)C2CC1 (stereo not drawn) [4w],> 30,–
CC1=CCCC2(C)OC2C2OC(=O)C(CNCc3ccccc3OC(F)(F)F)C2CC1 (stereo not drawn) [4x],> 30,–
CC1=CCCC2(C)OC2C2OC(=O)C(CNCc3cccc(OC(F)(F)F)c3)C2CC1 (stereo not drawn) [4y],> 30,–
CC1=CCCC2(C)OC2C2OC(=O)C(CNCc3c(F)cccc3F)C2CC1 (stereo not drawn) [4z],> 30,–
CC1=CCCC2(C)OC2C2OC(=O)C(CN3CCCCC3)C2CC1 (stereo not drawn) [5b],7.8,–
CC1=CCCC2(C)OC2C2OC(=O)C(CN3CCN(C)CC3)C2CC1 (stereo not drawn) [5c],> 30,–

Structure (SMILES),EC50 (MEC1 CLL cell line [1]) [µM],further results
CC1=CCCC2(C)OC2C2OC(=O)C(CN3CCC4(CC3)OCCO4)C2CC1 (stereo not drawn) [5g],15.2,–
CCCC1CCN(CC2C(=O)OC3C2CCC(C)=CCCC2(C)OC32)CC1 (stereo not drawn) [5i],22.2,–
COCCN1CCN(CC2C(=O)OC3C2CCC(C)=CCCC2(C)OC32)CC1 (stereo not drawn) [5j],19.5,–
CC1=CCCC2(C)OC2C2OC(=O)C(CN3CCC(N4CCc5ccccc5C4)CC3)C2CC1 (stereo not drawn) [5k],16.3,–
CC1=CCCC2(C)OC2C2OC(=O)C(CN3CCN(c4ncccn4)CC3)C2CC1 (stereo not drawn) [5m],24.8,–
CC1=CCCC2(C)OC2C2OC(=O)C(CN3CCN(Cc4cccc(C)c4)C(=O)C3)C2CC1 (stereo not drawn) [5o],> 30,–
CC1=CCCC2(C)OC2C2OC(=O)C(CN3CCC(C#N)(c4ccccc4)CC3)C2CC1 (stereo not drawn) [5p],> 30,–
CC1=CCCC2(C)OC2C2OC(=O)C(CN3CCC(N4CCCCC4)CC3)C2CC1 (stereo not drawn) [5r],> 30,–
CC1=CCCC2(C)OC2C2OC(=O)C(CN3CCN(C(C)(C)C)CC3)C2CC1 (stereo not drawn) [5s],> 30,–
CC1=CCCC2(C)OC2C2OC(=O)C(CN3CCN(CCc4cccs4)CC3)C2CC1 (stereo not drawn) [5t],> 30,–
CC1=CCCC2(C)OC2C2OC(=O)C(CN3CCN(CC4CCCCC4)CC3)C2CC1 (stereo not drawn) [5u],> 30,–
CC1=CCCC2(C)OC2C2OC(=O)C(CN3CCn4c(nnc4C(F)(F)F)C3)C2CC1 (stereo not drawn) [5v],> 30,–
CCCCN1CCN(CC2C(=O)OC3C2CCC(C)=CCCC2(C)OC32)CC1 (stereo not drawn) [5x],> 30,–
Cc1nc(O)cc(C2CCNCC2)n1 [Amine 7],–,"EC50 (MEC1 CLL cell line [2]; MEC1 cells, alamarBlue, 1, 5f and 7 compared in parallel, CalcuSyn): could not be determined"
CC1=CCCC2(C)OC2C2OC(=O)C(CN(C)CCO)C2CC1 (stereo not drawn) [Compound 2c],–,"EC50 (MEC1 CLL cell line [2]; Homo sapiens, MEC1, read-out: EC50 ave., MEC1 cell line, alamarBlue assay, library screen): < 15 µM"
C/C1=C\CC[C@@]2(C)O[C@@H]2[C@H]2OC(=O)[C@@H](CN(CC3CC3)C(C)C)[C@@H]2CC1 [Compound 2f],12.2,"EC50 (MEC1 CLL cell line [2]; Homo sapiens, MEC1, MEC1 cell line, alamarBlue assay, library screen, read-out: EC50 ave.): < 15 µM"
CC1=CCCC2(C)OC2C2OC(=O)C(CSCCO)C2CC1 (stereo not drawn) [Compound 3],–,activity against the MEC1 CLL cell line (MEC1 CLL cell line [2]; result in words): lack of activity
"C=C1C(=O)O[C@@H]2[C@H]3O[C@]3(C)CC/C=C(\C)CC[C@@H]12 [PTL, parthenolide]",–,"EC50 (MEC1 CLL cell line [2]; Homo sapiens, MEC1, MEC1 cells, alamarBlue, 1, 5f and 7 compared in parallel, CalcuSyn, read-out: EC50): 3.6 µM; EC50 (MEC1 CLL cell line [2]; Homo sapiens, MEC1, MEC1 cells, alamarBlue, direct comparison of 5f with PTL and DMAPT, n = 5, read-out: EC50): 6.2 µM"
CC1=CCCC2(C)OC2C2OC(=O)C(CSCCO)C2CC1 (stereo not drawn) [compound 3],> 30,–
